This is an account of results in patent US8754209B2, “Indazole derivatives or pharmaceutically acceptable salts thereof as protein kinase inhibitors for proliferative diseases treatment, and a pharmaceutical composition containing the same as an active ingredient” (Korea Institute of Science and Technology, priority 2009, dated 2014).

In this test the test system is A375P cells. Briefly: Anti-proliferative activity on A375P cell line (MTT assay). The format is cell-based. The settings on record: A375P human melanoma cell line. As to the method:
A375P cells were purchased from American Type Culture Collection (ATCC, Rockville, Md., US) and maintained in DMEM medium (Welgene, Daegu, Korea) supplemented with 10% FBS (Welgene) and 1% penicillin/streptomycin (Welgene) in a humidified atmosphere with 5% CO2 at 37° C. The A375P cells were taken from culture substrate with 0.05% trypsin-0.02% EDTA and plated at a density of 5×10^3 cells/well in 96 well plates and then incubated at 37° C. for 24 h in a humidified atmosphere with 5% CO2 prior to treatment of various concentration (three fold serial dilution, 12 points) of test compounds. The A357P cell viability was assessed by the conventional 3-(4,5-dimethylthiazol-2-yl)-2,5-diphenyltetrazolium bromide (MTT) reduction assay. MTT assays were carried out with CellTiter 96 (Promega) according to the manufacturer's instructions.
After 1 day, 0.5 μl the representative compounds of the examples were added thereto. The representative compounds of the examples were prepared by three fold serial dilution of 10 mM stock solution in DMSO, 12 point (final conc. DMSO 0.5%). Then, 15 μl dye was added in each well. After 2 h, 100 μl stop solution was added each well. After 24 h, absorbance was measured. The absorbance at 590 nm was recorded using EnVision2103 (PerkinElmer; Boston, Mass., US). The IC50 value was calculated using GraphPad Prism 4.0 software.
In general terms: Tetrazolium assays rely on reduction of a dye to a coloured formazan, in cell work by metabolically active cells.
With `COC(=O)c1n[nH]c2cc(-c3cccc(NC(=O)c4ccc(OC5CCN(C)CC5)c(C(F)(F)F)c4)c3)ccc12` [Example 78, methyl 6-(3-(4-(1-methylpiperidin-4-yloxy)-3-(trifluoromethyl)benzamido)phenyl)-1H-indazole-3-carboxylate], the GI50 – broadly, the concentration that inhibits growth by half – is less than 10 µM. With `O=C(Nc1cccc(-c2ccc3c(C(=O)NCCN4CCOCC4)n[nH]c3c2)c1)Nc1cccc(Cl)c1Cl` [Example 60, 6-(3-(3-(2,3-dichlorophenyl)ureido)phenyl)-N-(2-morpholinoethyl)-1H-indazole-3-carboxamide], the GI50 is less than 10 µM. `CCNC(=O)c1n[nH]c2cc(-c3cccc(NC(=O)Nc4cccc(Cl)c4Cl)c3)ccc12` [Example 61, 6-(3-(3-(2,3-dichlorophenyl)ureido)phenyl)-N-ethyl-1H-indazole-3-carboxamide] registered a GI50 of less than 10 µM. On to `CCNC(=O)c1n[nH]c2cc(-c3cccc(NC(=O)Nc4ccc(Cl)c(Cl)c4)c3)ccc12` [Example 62, 6-(3-(3-(3,4-dichlorophenyl)ureido)phenyl)-N-ethyl-1H-indazole-3-carboxamide], for which the GI50 is less than 10 µM. The molecule `CCOC(=O)c1n[nH]c2cc(-c3cccc(NS(=O)(=O)c4cccc(C(F)(F)F)c4)c3)ccc12` [Example 68, ethyl 6-(3-(3-(trifluoromethyl)phenylsulfonamido)phenyl)-1H-indazole-3-carboxylate] showed a GI50 of less than 10 µM. With `CCOC(=O)c1n[nH]c2cc(-c3cccc(NC(=O)c4ccc(Br)s4)c3)ccc12` [Example 49, ethyl 6-(3-(5-bromothiophene-2-carboxamido)phenyl)-1H-indazole-3-carboxylate], the GI50 is less than 10 µM. The result for `O=C(Nc1ccc(-c2ccc3c(C(=O)NCCN4CCOCC4)n[nH]c3c2)cc1)c1ccc(Br)s1` [Example 31, 6-(4-(5-bromothiophene-2-carboxamido)phenyl)-N-(2-morpholinoethyl)-1H-indazole-3-carboxamide] reads less than 10 µM; that for `CCOC(=O)c1n[nH]c2cc(-c3cccc(NC(=O)c4cc(N5CCC(O)CC5)cc(C(F)(F)F)c4)c3)ccc12` [Example 76, ethyl 6-(3-(3-(4-hydroxypiperidin-1-yl)-5-(trifluoromethyl)benzamido)phenyl)-1H-indazole-3-carboxylate], less than 10 µM; that for `CCOC(=O)c1n[nH]c2cc(-c3cccc(NC(=O)c4cc(C)on4)c3)ccc12` [Example 46, ethyl 6-(3-(5-methylisoxazole-3-carboxamido)phenyl)-1H-indazole-3-carboxylate], less than 10 µM. The same measure for `CCOC(=O)c1n[nH]c2cc(-c3cc(NC(=O)Nc4ccc(N5CCN(C)CC5)c(C(F)(F)F)c4)ccc3C)ccc12` [Example 71, ethyl 6-(2-methyl-5-(3-(4-(4-methylpiperazin-1-yl)-3-(trifluoromethyl)phenyl)ureido)phenyl)-1H-indazole-3-carboxylate]: less than 10 µM; for `O=C(Nc1ccc(-c2ccc3c(C(=O)Nc4cccc(C(F)(F)F)c4)n[nH]c3c2)cc1)c1ccc(Br)s1` [Example 35, 6-(4-(5-bromothiophene-2-carboxamido)phenyl)-N-(3-(trifluoromethyl)phenyl)-1H-indazole-3-carboxamide]: less than 10 µM.

In turn, `CCOC(=O)c1n[nH]c2cc(-c3ccc(NC(=O)c4cccc(C(F)(F)F)c4)cc3)ccc12` [Example 2, ethyl 6-(4-(3-(trifluoromethyl)benzamido)phenyl)-1H-indazole-3-carboxylate] gave a GI50 of less than 10 µM. `CCOC(=O)c1n[nH]c2cc(-c3ccc(NC(=O)c4ccncc4Cl)cc3)ccc12` [Example 13, ethyl 6-(4-(3-chloroisonicotinamido)phenyl)-1H-indazole-3-carboxylate] gave a GI50 of less than 10 µM. The same measure for `CCOC(=O)c1n[nH]c2cc(-c3ccc(NC(=O)c4ccc(OC)c5ccc(OC)cc45)cc3)ccc12` [Example 15, ethyl 6-(4-(4,7-dimethoxy-1-naphthamido)phenyl)-1H-indazole-3-carboxylate]: less than 10 µM.
